Entries after “also recorded” stand apart in the source; their conditions may differ.
What was measured:
[1] = tested on: human normal keratinocytes; assay: Apoptosis in cultured human normal keratinocytes; type: cell-based; settings: BzATP 100 μM with ATP 1 μM or 250 μM
Description: Primary cultures of human normal keratinocytes were generated from discarded foreskins. […] Apoptosis may be quantified in terms of percent solubilized DNA (Wang et al, 2004a), or by using the commercial cell-death detection ELISA kit (Roche Applied Science, Nutley, N.J.) (Feng et al, 2006).

mouse skin [2] = assay: Local BzATP on normal mouse dorsal skin, 16 weeks (safety, TUNEL, Ki67); type: in vivo
Method: BzATP was applied locally twice a week on the surface of the shaved dorsal skin for a total of 16 weeks. The control group included mice that had their back shaved and were treated only with the vehicle. […] See, FIGS. 14A & 14C versus FIGS. 14B & 14D, respectively.
Image-analysis of immunofluorescence data was described (Li et al, 2007). Representative fields were captured and saved in Adobe Photoshop. Pictures were scanned using UN-SCAN-IT (Silk Scientific, Orem Utah) by choosing 3-5 representative fields for each picture. Light intensity in each field was digitized and average pixel density per field was determined using the program software.
(§1) TUNEL assays in tissues cross sections were performed using DeadEnd™ Fluorometric TUNEL System (Promega, Madison, Wis.) according to the manufacturer's protocol. For TUNEL-P2X7 co-staining, tissue cross sections were first assayed for TUNEL, followed by P2X7 immunostaining.
(§2) Experiments using mice were done according to an approved CWRU IACUC IRB protocol [2006-0141]. Experiments utilized 6-8 weeks old FVB female mice (obtained from Charles River, Wilmington, Mass.). The animal's dorsal skin (about 3×5 cm) was shaved using Oster animal clipper (Mountain Home, Ark.) followed by weekly application of Nair® hair remover lotion. Treatments included the application of one or more of the following drugs, directly onto the shaved dorsal skin: DMBA (50 μg/200 μl acetone [950 μM, 190 nmol, 3.3 μg/cm^2]); TPA (3 μg/200 μl acetone [20 μM, 4 nmol, 0.2 μg/cm^2]); BzATP (14.3 μg/200 μl of 2.3/1 vol/vol solution of propylene-glycol [PG]/ethanol [EtOH][100 μM, 20 nmol, 1.0 μg/cm^2]); or the BzATP vehicle only (200 μl of PG/EtOH). DMBA was applied once, while TPA and BzATP were applied twice a week. Skin neoplasia in the mice were induced by the “Two-Step” method, which involved tumor initiation by local treatment with 7,12-dimethylbenz(a)anthracene (DMBA), followed by tumor promotion with local treatment of 12-O-tetradecanoylphorbol-13-acetate (TPA). Guo et al., “Disruption of EphA2 receptor tyrosine kinase leads to increased susceptibility to carcinogenesis in mouse skin” Cancer Res 2006, 66:7050-7058. The concentration/dose of BzATP and frequency of treatments were chosen based on data in cultured cells (supra).
From each animal blood samples were obtained from the retro-bulbar venous complex for ALT (SGPT) and AST (SGOT) assays. In addition, dorsal skin strips were obtained from each animal for microscopic H&E tissue evaluation, Ki67 immunostaining, and in-situ detection of DNA fragmentation by the TUNEL method.
Assays used Liquid ALT and Liquid AST reagent sets (Cat # A7526-150a and A7561-150, respectively) obtained from Pointe Scientific (Canton Mich.), and were performed according to the supplier instructions.

hEVEC cells = assay: Apoptosis in hEVEC cells; type: cell-based, human
mouse skin [3] = assay: Local BzATP on normal mouse dorsal skin, 4 weeks (tolerability, apoptosis); type: in vivo
Method: BzATP (100 μM in 200 μl [20 nmol, 14.3 μg, 1.0 μg/cm^2]), was applied twice weekly for 4 weeks on the posterior region of the shaved dorsal skin. The concentration/dose of BzATP and frequency of treatments were chosen based on the above discussed cell culture data. Each animal served as its own control by having vehicle-containing solution applied twice weekly for 4 weeks on the anterior region of the shaved dorsal skin.
as §1, §2
The shaved dorsal skin was divided into two equal anterior and posterior areas. Each animal was treated with BzATP applied locally twice a week for […] on the anterior skin area; vehicle only was applied in parallel twice a week for 4 weeks on the posterior skin area. At the end of the experiment animals were euthanized by cervical dislocation and dorsal skin strips were obtained from each animal from the anterior and posterior skin areas for microscopic H&E tissue evaluation and P2X7 immunostaining.

[4] = tested on: DMBA/TPA-induced skin papillomas and squamous spindle-cell carcinomas; assay: DMBA/TPA mouse skin papilloma and cancer model, 28 weeks (Experiment-4); type: in vivo
[5] = tested on: mouse wild-type normal keratinocytes; assay: DNA synthesis ([3H]-thymidine incorporation) in mouse wild-type normal keratinocytes; type: cell-based; settings: BzATP 100 μM 8 hours; oligonucleotides 100 μM 14 hours
Method: FIG. 20 presents exemplary data showing the effects of pre-treatment with anti-sense P2X7 oligonucleotides (ASO) or random-control P2X7 oligonucleotides (RCO) (both at 100 μM for 14 hours), and of treatments with BzATP (100 μM, 8 hours) on [^3H]-thymidine incorporation in mouse wild-type normal keratinocytes (values are means±SD, n=4).
Changes in DNA synthesis were determined in terms of [^3H]-thymidine incorporation as described Wang et al., “EGF facilitates epinephrine inhibition of P2X7-receptor mediated pore formation and apoptosis: a novel signaling network” Endocrinology 2005, 146:164-174. The radioactivity (dpm/mg Protein, determined by Bio-Rad Protein Assay solution [Hercules, Calif.]) of triplicated samples was determined by beta scintillation counting (Beckman LS1801 scintillation counter).

[6] = tested on: mouse wild-type normal keratinocytes; assay: Apoptosis in cultured mouse wild-type keratinocytes; type: cell-based; settings: 8 hours

## Nc1ncnc2c1ncn2[C@@H]1O[C@H](COP(=O)(O)OP(=O)(O)OP(=O)(O)O)[C@@H](OC(=O)c2ccc(C(=O)c3ccccc3)cc2)[C@H]1O [BzATP, 3′-O-(4-benzoylbenzoyl)adenosine triphosphate]
[1]
  combined pro-apoptotic effect of BzATP with ATP: non-additive
Mouse skin [2]; 16 weeks
  Ki67 immunoreactivity versus control group: no significant differences in Ki67 immunoreactivity
  histological evaluation of dorsal skin versus control group: no differences
  mean serum levels of ALT (SGPT) and AST (SGOT): in the normal range for the mouse
Mouse skin [2]; 16 weeks, n=3
  TUNEL pixel density, hair-shaft cross sections: 6.1±0.8
  TUNEL staining mean pixel density (±SD), epidermis: 5.2±0.3
Mouse skin [2]; 16 weeks, normal mice
  thinning or ulceration of the skin: did not produce a thinning or ulceration of the skin
Mouse skin [2]; mice, applied locally on the skin
  local or systemic adverse effects of local BzATP treatment: did not result in any local or systemic adverse events; also recorded: no adverse systemic effects; also recorded: no significant effect on the behavior of the animals, feeding habits, body weight, and liver functions; also recorded: did not produce local or systemic adverse effects
Mouse skin [2]; twice a week, 16 weeks, local
  behavior, feeding habits, body weights: no effects were observed
  gross appearance of the treated skin: no noticeable effect
hEVEC cells
  increase of apoptosis by BzATP: 2.5 fold
Mouse skin [3]; 1.0 μg/cm^2 twice weekly
  physical characteristics, behavior, feeding habits, weights: no noticeable changes
Mouse skin [3]; twice weekly
  epidermal apoptosis (nuclear morphology, TUNEL): augmented apoptosis of epidermal cells; also recorded: numerous epidermal basal/parabasal cells and epidermal hair shaft cells stained TUNEL positive
  histological H&E evaluation, treated versus control skin: no differences
  visible effect on the dorsal skin: no visible effect on the dorsal skin
[4]; 1 μg/cm^2 BzATP applied locally twice weekly
  inhibition of papilloma and skin cancer formation: 50%
[4]; immunoreactivity in cross sections
  effect on P2X7 receptor expression in skin cancers: did not effect P2X7 receptor expression in cancer cells
[4]; log-rank test
  overall survival rates versus DMBA/TPA group: did not differ statistically
[4]; mouse, in vivo
  TUNEL staining in papillomas and cancer tissues versus DMBA/TPA group: more intense
  development of cancerous lesions (time-to-event) versus DMBA/TPA group: significantly slower and lower
  proportion of living animals with cancerous lesions >200 mm^3, difference to DMBA/TPA group: did not reach statistical significance
[4]; week 5, DMBA/TPA+BzATP group
  proportion of living animals having a papilloma: 48±12%
[4]; week 10, DMBA/TPA+BzATP group
  papillomas per animal (mean±SD): 1.2±0.4
[4]; week 12, DMBA/TPA+BzATP group
  mean total papillomas size per animal (mean±SD): 3.4±1.0 mm^3
[4]; week 14, mice co-treated with BzATP
  proportion of animals with cancers: 50%
[4]; week 28, DMBA/TPA+BzATP group
  proportion of living animals with cancerous lesions: 43±9%
  proportion of living animals with cancerous lesions >10 mm^3: 16±4%
[4]; week 28, co-treated with BzATP
  lowering of incidence of cancerous lesions: about 50%
[4]; weeks 0-12, co-treated with BzATP
  lowering of incidence of papillomas: about 50%
[4]; weeks 14-28
  effect on number of cancerous lesions per animal: little effect
[5]
  effect on [3H]-thymidine incorporation: no significant effect
[6]
  concentration of maximal apoptosis effect: 100 to 250 µM
  lowest BzATP level at which apoptosis effects began: 50 nM
[6]; Mus musculus, Keratinocyte, read-out: estimated EC50 of apoptosis augmentation
  EC50: ~10 µM

— US8314068B2, “P2X7 inhibition of epithelial cancers and papillomas” (University Hospitals of Cleveland, priority 2009, dated 2012)
